Assay results published in patent publication US9980943B2, “Methods of treating muscular dystrophy” (BOARD OF REGENTS OF THE NEVADA SYSTEM OF HIGHER EDUCATION, …, priority 2013, dated 2018).

How the values were obtained:
Type in all cases: cell-based, mouse
[1] = test system: β-galactosidase in CMV-LacZ C2C12 myoblasts; assay: CMV-LacZ secondary screen in C2C12 myoblasts (β-Gal stabilizing assay); details: CMV-LacZ C2C12 myoblasts
Procedure, shortened: (§1)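 Dose-response runs at 0.5–40 μM (0.5, 1, 5, 10, 20, 40 μM; N=2 per point) used a clonal C2C12 line carrying CMV-LacZ. Cells were assayed as myoblasts or as differentiated myotubes, and β-galactosidase levels were read with the FDG fluorogenic substrate.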

[2] = test system: α7 integrin (LacZ reporter in α7βgal+/− myoblasts); assay: Myoblast α7+/LacZ integrin FDG assay (Burkin assay in myoblasts, 96-well); details: α7+/LacZ myoblasts, 96-well
[3] = test system: β-galactosidase in CMV-LacZ C2C12 myotubes; assay: CMV-LacZ secondary screen in C2C12 myotubes (β-Gal stabilizing assay); details: C2C12 CMV-LacZ myotubes, fold relative to DMSO
Procedure, shortened: as §1

[4] = test system: α7 integrin (LacZ reporter in α7+/LacZ myotubes); assay: Myotube α7 integrin FDG assay (Burkin assay in myotubes, 96-well); details: myotubes

| SMILES | CMV-LACZ in Myoblasts (β-galactosidase activity relative to DMSO) ([1]; 0.5 uM) | CMV-LACZ in Myoblasts (β-galactosidase activity relative to DMSO) ([1]; 1 uM) | CMV-LACZ in Myoblasts (β-galactosidase activity relative to DMSO) ([1]; 5 uM) | CMV-LACZ in Myoblasts (β-galactosidase activity relative to DMSO) ([1]; 10 uM) | CMV-LACZ in Myoblasts (β-galactosidase activity relative to DMSO) ([1]; 20 uM) | CMV-LACZ in Myoblasts (β-galactosidase activity relative to DMSO) ([1]; 40 uM) | Burkin Assay in Myoblasts, signal relative to DMSO ([2]; 0.5 uM) | Burkin Assay in Myoblasts, signal relative to DMSO ([2]; 1 uM) | Burkin Assay in Myoblasts, signal relative to DMSO ([2]; 5 uM) | Burkin Assay in Myoblasts, signal relative to DMSO ([2]; 10 uM) | Burkin Assay in Myoblasts, signal relative to DMSO ([2]; 20 uM) | Burkin Assay in Myoblasts, signal relative to DMSO ([2]; 40 uM) | CMV-LACZ in Myotubes, signal relative to DMSO ([3]; 0.5 uM) | CMV-LACZ in Myotubes, signal relative to DMSO ([3]; 1 uM) | CMV-LACZ in Myotubes, signal relative to DMSO ([3]; 5 uM) | CMV-LACZ in Myotubes, signal relative to DMSO ([3]; 10 uM) | CMV-LACZ in Myotubes, signal relative to DMSO ([3]; 20 uM) | CMV-LACZ in Myotubes, signal relative to DMSO ([3]; 40 uM) | Burkin Assay in Myotubes, α7 integrin LacZ reporter signal relative to DMSO ([4]; 0.5 uM) | Burkin Assay in Myotubes, α7 integrin LacZ reporter signal relative to DMSO ([4]; 1 uM) | also measured |
| --- | --- | --- | --- | --- | --- | --- | --- | --- | --- | --- | --- | --- | --- | --- | --- | --- | --- | --- | --- | --- | --- |
| COC(=O)Cn1c(=O)c2c(nc3n2CC(C)CN3Cc2ccccc2)n(C)c1=O (stereo not drawn) [MLS001166758-01] | 0.9357 | 1.0175 | 1.1998 | 1.0661 | 0.6126 | 0.3481 | 0.824 | 0.7394 | 0.9736 | 0.8245 | 0.7275 | 0.6174 | 0.9958 | 0.7474 | 0.9780 | 0.9444 | 1.1044 | 0.9867 | 1.0327 | 1.027 | Burkin Assay in Myotubes, α7 integrin LacZ reporter signal relative to DMSO ([4]; 5 uM): 0.9857; Burkin Assay in Myotubes, α7 integrin LacZ reporter signal relative to DMSO ([4]; 10 uM): 0.8979; Burkin Assay in Myotubes, α7 integrin LacZ reporter signal relative to DMSO ([4]; 20 uM): 0.9856; Burkin Assay in Myotubes, α7 integrin LacZ reporter signal relative to DMSO ([4]; 40 uM): 0.8754 |
| CCCCN1CC(=O)N2Cc3[nH]c4ccccc4c3C[C@H]2C1=O [MLS001165424-01] | 1.1754 | 0.9796 | 1.0607 | 1.0078 | 1.2730 | 1.2074 | 1.152 | 1.2222 | 0.9966 | 0.9548 | 1.176 | 1.23 | 0.9152 | 1.1248 | 1.0571 | 1.1758 | 1.0316 | 0.8558 | 0.8771 | 0.8568 | Burkin Assay in Myotubes, α7 integrin LacZ reporter signal relative to DMSO ([4]; 5 uM): 0.8938; Burkin Assay in Myotubes, α7 integrin LacZ reporter signal relative to DMSO ([4]; 10 uM): 0.8315; Burkin Assay in Myotubes, α7 integrin LacZ reporter signal relative to DMSO ([4]; 20 uM): 0.7791; Burkin Assay in Myotubes, α7 integrin LacZ reporter signal relative to DMSO ([4]; 40 uM): 0.7641 |
| C#CC1(O)CCC2C3CCC4=C/C(=N/OCC(=O)NCC(=O)NC(C(=O)O)C(C)C)CC[C@]4(C)C3CC[C@@]21C (stereo partly drawn) [MLS001163859-01] | 1.1113 | 1.1684 | 1.2009 | 1.1812 | 0.7593 | 0.8104 | 0.9786 | 1.09 | 1.055 | 1.024 | 0.9208 | 0.928 | 0.8756 | 1.1326 | 1.0856 | 1.1727 | 1.0965 | 1.2482 | 1.132 | 1.281 | Burkin Assay in Myotubes, α7 integrin LacZ reporter signal relative to DMSO ([4]; 5 uM): 1.385; Burkin Assay in Myotubes, α7 integrin LacZ reporter signal relative to DMSO ([4]; 10 uM): 1.249; Burkin Assay in Myotubes, α7 integrin LacZ reporter signal relative to DMSO ([4]; 20 uM): 1.118; Burkin Assay in Myotubes, α7 integrin LacZ reporter signal relative to DMSO ([4]; 40 uM): 1.058 |
